From patent publication US11680070B2, “Thieno[2,3-c]pyridazin-4(1H)-one derivative and application thereof” (MEDSHINE DISCOVERY INC., priority 2018, dated 2023)

Legend:
[1] = molecular target: human acetyl-CoA carboxylase 1 (hACC1) (Homo sapiens, UniProt Q13085); assay: In vitro ACC enzyme inhibition (ADP luminescence), hACC1; type: biochemical; settings: human ACC1 enzyme; 15 min pre-incubation, 1 hour reaction at room temperature
Procedure: (§1) The IC50 value was determined to evaluate the ability of the test compounds to inhibit acetyl-CoA carboxylase (ACC).
(§2) Protein: human acetyl-CoA carboxylase 1 (hACC1) and human acetyl-CoA carboxylase 2 (hACC2).
(§3) Cofactor: acetyl coenzyme A, ATP
(§4) Activator: potassium citrate
(§5) 1. 1 time of the enzyme/substrate/cofactor was added to the wells of the well plate.
(§6) 2. According to Acoustic technology, the solutions of the compounds in DMSO were added to the above enzyme mixture and the mixture was pre-incubated for 15 minutes.
(§7) 3. ATP was added to initiate the reaction and the mixture was shaken until thoroughly mixed.
(§8) 4. The mixture was incubated for 1 hour at room temperature.
(§9) 5. After quenching the reaction, the incubation continued for 40 minutes.
(§10) 6. After adding the detection reagents, the mixture was incubated for 30 minutes.
(§11) 8. Data analysis: based on the standard curve of ADP, the luminescence was converted into ADP product concentration and the enzyme activity was calculated. Graphpad Prism software was used to fit the curve to obtain the IC50 value.

[2] = molecular target: human acetyl-CoA carboxylase 2 (hACC2) (Homo sapiens, UniProt O00763); assay: In vitro ACC enzyme inhibition (ADP luminescence), hACC2; type: biochemical; settings: human ACC2 enzyme; 15 min pre-incubation, 1 hour reaction at room temperature
Chain of human acetyl-CoA carboxylase 2 (hACC2) (O00763 whole entry): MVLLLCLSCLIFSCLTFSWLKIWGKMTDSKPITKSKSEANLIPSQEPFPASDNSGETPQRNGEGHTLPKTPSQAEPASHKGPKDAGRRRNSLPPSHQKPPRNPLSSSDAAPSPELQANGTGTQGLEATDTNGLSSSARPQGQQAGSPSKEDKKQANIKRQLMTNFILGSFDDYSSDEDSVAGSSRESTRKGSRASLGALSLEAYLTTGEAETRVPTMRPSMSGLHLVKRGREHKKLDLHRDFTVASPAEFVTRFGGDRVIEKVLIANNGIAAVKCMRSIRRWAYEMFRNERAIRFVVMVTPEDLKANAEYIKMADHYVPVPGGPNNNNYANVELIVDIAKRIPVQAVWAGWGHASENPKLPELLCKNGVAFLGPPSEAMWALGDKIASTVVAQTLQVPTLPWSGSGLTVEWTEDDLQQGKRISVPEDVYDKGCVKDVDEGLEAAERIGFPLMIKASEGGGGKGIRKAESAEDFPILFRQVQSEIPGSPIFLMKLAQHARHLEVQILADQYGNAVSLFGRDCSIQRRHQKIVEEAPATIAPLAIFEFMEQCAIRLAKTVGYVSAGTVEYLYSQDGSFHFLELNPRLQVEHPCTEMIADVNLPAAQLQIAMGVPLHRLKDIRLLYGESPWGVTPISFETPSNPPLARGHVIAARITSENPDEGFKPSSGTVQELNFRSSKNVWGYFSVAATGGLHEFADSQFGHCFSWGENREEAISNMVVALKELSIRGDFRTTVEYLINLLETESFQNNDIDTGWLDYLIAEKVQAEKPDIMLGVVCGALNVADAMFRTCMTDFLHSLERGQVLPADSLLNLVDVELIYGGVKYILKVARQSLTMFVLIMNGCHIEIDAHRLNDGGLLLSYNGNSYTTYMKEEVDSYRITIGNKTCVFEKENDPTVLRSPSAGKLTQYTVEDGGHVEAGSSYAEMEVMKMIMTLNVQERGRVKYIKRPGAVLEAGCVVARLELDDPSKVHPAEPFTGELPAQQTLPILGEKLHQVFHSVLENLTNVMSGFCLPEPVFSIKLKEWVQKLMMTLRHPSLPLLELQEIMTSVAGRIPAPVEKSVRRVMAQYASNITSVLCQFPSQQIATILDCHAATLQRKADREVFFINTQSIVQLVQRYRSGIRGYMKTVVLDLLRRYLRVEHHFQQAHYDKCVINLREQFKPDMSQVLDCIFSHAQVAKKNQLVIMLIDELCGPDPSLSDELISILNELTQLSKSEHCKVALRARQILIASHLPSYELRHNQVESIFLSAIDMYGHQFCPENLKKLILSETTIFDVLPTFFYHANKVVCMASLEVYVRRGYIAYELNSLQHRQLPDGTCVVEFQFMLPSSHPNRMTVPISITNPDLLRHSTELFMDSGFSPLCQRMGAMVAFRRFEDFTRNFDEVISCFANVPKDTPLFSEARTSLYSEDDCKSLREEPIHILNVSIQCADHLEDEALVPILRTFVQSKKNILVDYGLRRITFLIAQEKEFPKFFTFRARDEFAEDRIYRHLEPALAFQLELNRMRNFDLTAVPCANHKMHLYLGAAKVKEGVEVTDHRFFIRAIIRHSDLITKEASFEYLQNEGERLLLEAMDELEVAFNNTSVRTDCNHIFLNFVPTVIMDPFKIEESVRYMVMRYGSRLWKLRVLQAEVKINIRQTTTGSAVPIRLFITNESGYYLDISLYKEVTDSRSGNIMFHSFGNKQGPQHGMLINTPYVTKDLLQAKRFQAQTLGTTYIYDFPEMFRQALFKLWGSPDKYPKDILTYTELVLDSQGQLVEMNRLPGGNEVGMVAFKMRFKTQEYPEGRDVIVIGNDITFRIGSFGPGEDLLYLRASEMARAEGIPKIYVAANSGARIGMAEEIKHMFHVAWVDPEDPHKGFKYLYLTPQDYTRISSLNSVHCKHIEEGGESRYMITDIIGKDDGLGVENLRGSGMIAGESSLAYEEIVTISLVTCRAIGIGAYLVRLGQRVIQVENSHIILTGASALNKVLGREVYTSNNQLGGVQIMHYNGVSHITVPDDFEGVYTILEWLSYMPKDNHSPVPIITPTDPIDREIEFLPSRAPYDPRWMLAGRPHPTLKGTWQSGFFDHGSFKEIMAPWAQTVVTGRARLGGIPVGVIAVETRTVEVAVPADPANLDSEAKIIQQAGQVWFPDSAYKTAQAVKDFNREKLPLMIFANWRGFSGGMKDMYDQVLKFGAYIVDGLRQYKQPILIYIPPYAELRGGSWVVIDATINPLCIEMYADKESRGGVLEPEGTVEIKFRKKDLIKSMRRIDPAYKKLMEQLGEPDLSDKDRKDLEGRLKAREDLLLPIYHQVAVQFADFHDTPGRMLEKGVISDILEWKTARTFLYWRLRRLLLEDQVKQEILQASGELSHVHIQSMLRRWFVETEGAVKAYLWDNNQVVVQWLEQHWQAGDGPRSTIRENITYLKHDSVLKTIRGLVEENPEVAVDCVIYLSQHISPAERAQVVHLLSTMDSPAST
Procedure: as §1, §2, §3, §4, §5, §6, §7, §8, §9, §10, §11

[3] = Pharmacokinetics in C57BL/6 mice (iv and oral); type: in vivo; settings: mouse, male C57BL/6 mice, plasma; for AUC(0-t) / clearance / half-life: iv 2.0 mg/kg, oral 10 mg/kg (route not given); for half-life: read-out: Half-life T1/2 (converted); for bioavailability: oral 10 mg/kg vs iv 2.0 mg/kg, read-out: Bioavailability F
Procedure: Testing the pharmacokinetics characteristics of the compounds in C57BL/6 mice
C57BL/6 mice (male, 18-30 g, 7-9 weeks, Shanghai Lingchang Biotechnology Co., Ltd.)
The clear solution of the test compounds (0.5 mg/mL in 10% DMSO, 10% polyethylene glycol stearate, 80% water) was injected via tail vein into 4 male C57BL/6 mice (overnight fasted, 7-9 weeks), at a dose of 2.0 mg/kg. The suspensions or clear solutions of the test compounds (1 mg/mL in 10% PEG400, 90% (0.5% methylcellulose+0.2% Tween 80)) were administrated by oral gavage to 4 male C57BL/6 mice (overnight fasted, 7-9 weeks), at a dose of 10 mg/kg.
Two mice were set in each group and subjected to blood sampling alternatively, 4 to 5 time points per mouse. At 0.0833h (IV group only), 0.25 h, 0.5 h, 1.0 h, 2.0 h, 4.0 h, 6.0 h, 8.0 h, and 24 h after the intravenous or oral administration, about 30 μL of blood was collected by saphenous vein puncture and added into an anticoagulation tube with EDTA-K2, and the plasma was isolated by centrifugation. The drug plasma concentration was determined by LC-MS/MS, and WinNonlin™ Version 6.3 (Pharsight, Mountain View, Calif.) pharmacokinetic software was used to calculate relevant pharmacokinetic parameters using the non-compartmental model linear logarithmic trapezoidal method.

[4] = system: NASH mouse model induced by HFD+CCl4; assay: In vivo pharmacodynamic study in NASH mouse model induced by HFD+CCl4; settings: HFD+CCl4 mice; oral gavage QD Day 0-27; WX004B 0.5, 1, 3 mg/kg; reference I-181 3 mg/kg
From the text: The objective of this research is to study the effect of the compound on improving NASH and liver fibrosis in HFD+CCl4 mouse model, with 1-181 as the reference compound.
1-181 is an Acetyl-CoA carboxylase inhibitor and is currently undergoing a phase II clinical study on non-alcoholic fatty liver disease (NAFLD). The HFD+CCl4 mouse model used in this study is an animal model simulating human non-alcoholic fatty liver disease evolving into NASH, high-fat diet causes the fat accumulation and steatosis in liver cells; CCl4 (intraperitoneal injection, twice a week) simulates the “second hit” of liver injury.
The modeling for this experiment included two steps of high-fat feed and CCl4 induction. Firstly, the mice were fed with high-fat feed to induce non-alcoholic fatty liver, and mice with body weight >38 g were selected. The mice were continuously fed with high-fat feed, and simultaneously intraperitoneally injected with 25% CCl4, […], twice a week, for a total of four weeks. The day of starting CCl4 administration was set as day 0, and the time of starting CCl4 administration was set as hour 0. On the day of starting CCl4 administration, the intragastric administration was started, and the administration volume of each group was 5 mL/kg, once a day for 4 weeks (28 days). […]

## COc1ccccc1C(Cn1nc(C(C)(C)C(=O)O)c(=O)c2c(C)c(-c3ncco3)sc21)OC1CCN(C(C)=O)CC1 (racemic) [WX011]
[1]
  IC50: 0.026 µM
[2]
  IC50: 0.0109 µM

## COc1ccccc1C(Cn1nc(C(C)(C)C(=O)O)c(=O)c2c(C)c(-c3ncco3)sc21)OC1CCN(S(C)(=O)=O)CC1 (racemic) [WX012]
[1]
  IC50: 0.0142 µM
[2]
  IC50: 0.0057 µM

## COC(=O)N1CCC(OC(Cn2nc(C(C)(C)C(=O)O)c(=O)c3c(C)c(-c4ncco4)sc32)c2ccccc2OC)CC1 (racemic) [WX015]
[1]
  IC50: 0.0202 µM
[2]
  IC50: 0.007 µM

## COc1ccccc1C(Cn1nc(C2(C(=O)O)CCCC2)c(=O)c2c(C)c(-c3ncco3)sc21)OC1CCOCC1 (single isomer, unassigned) [WX001B]
[1]
  IC50: 0.0049 µM
[2]
  IC50: 0.008 µM

## COc1ccccc1C(Cn1nc(CC(=O)O)c(=O)c2c(C)c(-c3ncco3)sc21)OC1CCOCC1 (single isomer, unassigned) [WX003B]
[1]
  IC50: 0.0109 µM
[2]
  IC50: 0.0034 µM

## COc1ccccc1C(Cn1nc(CC(=O)O)c(=O)c2c(C)c(-c3ncco3)sc21)OC1CCOCC1 (stereo not drawn) [WX002]
[1]
  IC50: 0.0536 µM
[2]
  IC50: 0.0087 µM

## COc1ccccc1[C@H](Cn1nc(C(C)(C)C(=O)O)c(=O)c2c(C)c(-c3ncco3)sc21)OC1CCOCC1 [WX004B]
[3]
  AUC(0-t): 7.21 µM·h
[4]
  Efficacy in NAS (anti-NASH effect): the same efficacy in both NAS and fibrosis as the reference compound at a higher dose
  Efficacy in fibrosis (anti-fibrosis effect): the same efficacy in both NAS and fibrosis as the reference compound at a higher dose

## COc1ccccc1C(Cn1nc(C2(C(=O)O)CC2)c(=O)c2c(C)c(-c3ncco3)sc21)OC1CCOCC1 (stereo not drawn) [WX005]
[1]
  IC50: 0.0466 µM
[2]
  IC50: 0.045 µM

## COc1ccccc1C(Cn1nc(C2(C(=O)O)CCC2)c(=O)c2c(C)c(-c3ncco3)sc21)OC1CCOCC1 (stereo not drawn) [WX006]
[1]
  IC50: 0.0203 µM
[2]
  IC50: 0.0221 µM

## COc1ccccc1[C@H](Cn1nc(C2(C(=O)O)CCCCC2)c(=O)c2c(C)c(-c3ncco3)sc21)OC1CCOCC1 [WX007B]
[1]
  IC50: 0.0091 µM
[2]
  IC50: 0.0126 µM

## COc1ccccc1[C@H](Cn1nc(C2(C(=O)O)CCOCC2)c(=O)c2c(C)c(-c3ncco3)sc21)OC1CCOCC1 [WX008B]
[1]
  IC50: 0.0053 µM
[2]
  IC50: 0.0139 µM
[3]
  clearance: 51.9 mL/min/kg
  half-life: 36 min
  bioavailability: 5.86%
  AUC(0-t): 0.304 µM·h

## COc1ccccc1[C@H](Cn1nc(C(F)(F)C(=O)O)c(=O)c2c(C)c(-c3ncco3)sc21)OC1CCOCC1 [WX009B]
[1]
  IC50: 0.0056 µM
[2]
  IC50: 0.011 µM
[3]
  clearance: 92.1 mL/min/kg
  half-life: 36.6 min
  bioavailability: 1.26%
  AUC(0-t): 0.04 µM·h

## COc1ccccc1C(Cn1nc(C2(C(=O)O)CCNCC2)c(=O)c2c(C)c(-c3ncco3)sc21)OC1CCOCC1 (stereo not drawn) [WX010]
[1]
  IC50: 0.0839 µM
[2]
  IC50: 0.0707 µM

## COc1ccccc1C(Cn1nc(C(C)(C)C(=O)O)c(=O)c2c(C)c(-c3ncco3)sc21)OC1CCN(C(=O)OC(C)(C)C)CC1 (stereo not drawn) [WX014]
[1]
  IC50: 0.026 µM
[2]
  IC50: 0.0072 µM

## COc1ccc(F)cc1[C@H](Cn1nc(C(C)(C)C(=O)O)c(=O)c2c(C)c(-c3ncco3)sc21)OC1CCOCC1 [WX016B]
[1]
  IC50: 0.0111 µM
[2]
  IC50: 0.0048 µM
